Assay results from US4208409A, “N-[(phosphinyl or phosphinothioyl)amino]thio-methylcarbamates and pesticidal methods” (priority 1978, dated 1980).
Where two headings read alike, the source gives them in different places.

Legend:
[1] = test system: yellow-fever mosquito (YFM); experiment: whole plant or invertebrate; type: in vivo; details: Aedes aegypti
Description: (§1) Representative pest species have been used, illustratively, order Lepidoptera, more specifically, the southern armyworm (SAW), (Prodenia eridania Cramer), the tobacco budworm (TBW), (Heliothis virescens), and the cabbage looper (CL) (Trichoplusia ni); order Acarina, more specifically, the two-spotted spider mite (TSSM) (Tetranychus urticae Koch); order Diptera, more specifically, the housefly (HF) (Musca domestica Linnaeus) or the yellow-fever mosquito (YFM) (Aedes aegypti); order Orthoptera, more specifically, the house cricket (HC) (Acheta domesticus Linnaeus) or the German cockroach (GC) (Blatella germanica Linnaeus); order Coleoptera, more specifically, the cotton boll weevil (BW) (Anthonomus grandis Boheman).
(§2) Preparation of tested chemicals--Analytical samples of each were dissolved in acetone. These acetone solutions were applied as such or portions of them were diluted with a Tween 20 "wet water" or a 10% sucrose "wet water". The "wet water" itself contained 0.132% v/v of Tween 20 (polyoxyethylene sorbitan monolaurate).
The yellow fever mosquito larvae test was effected by adding the appropriate amount of a wet water and acetone solution of the test chemical to 100 ml distilled water in a 5-ounce waxed paper cup. Ten mosquito larvae were added. […]
(§3) The tests were evaluated for insect kill (including moribund and knocked down) after 24, 48, and sometimes 72 hours.

[2] = test system: southern armyworm (SAW); experiment: southern armyworm mortality test (bush lima bean leaf dip); type: in vivo, Prodenia eridania Cramer; details: Spodoptera eridania, foliar
Description: as §1, §2
(§4) The southern armyworm and cabbage looper tests were effected with Henderson bush lima bean foliage characterized by two primary leaves per replicate. The leaves were dipped into a "wet water" emulsion of a test chemical, allowed to dry, and then placed on a moistened filter disk in a 9 cm plastic petri dish. Five larva of the respective test insects were put on the leaves, the cover of the petri dish was replaced, and it was set aside for future evaluation. Three replications for each treatment rate were prepared.
(§5) The southern armyworm, house cricket, boll weevil, house fly, and cabbage looper tests were held at 22° C., while the yellow fever mosquito larvae tests were held at 27° C.
as §3

[3] = crystallinity; type: physicochemical
[4] = test system: southern armyworm larvae; experiment: foliar residual effectiveness against southern armyworm larvae on lima bean seedlings; type: in vivo, Prodenia eridania Cramer
Description: These compounds were also compared for their foliar residual effectiveness against southern armyworm larvae on lima bean seedlings. The compound Methyl N-[[[[[(diethoxyphosphinothioyl)isopropylamino]thio]methylamino]carbonyl]oxy]ethanimidothioate of this invention was producing 100 percent mortality seven weeks after the treatment was applied, whereas the activity of the parent compound at an equivalent rate had dissipated to 20% by the 14th day.

[5] = test system: eggplant; experiment: phytotoxicity on the sensitive crop, eggplant, compared with the parent compound; type: in vivo
Description: (§6) In other tests, the phytotoxicity, residual effectiveness, and animal toxicity of e.g. Methyl N-[[[[[(diethoxyphosphinothioyl)isopropylamino]thio]methylamino]carbonyl]oxy]ethanimidothioate were compared with the parent compound, methyl N-[[(methylamino)carbonyl]oxy]ethanimidothioate. […] The parent compound had corresponding index values of 4.25 and 5.0.

[6] = test system: housefly (HF); experiment: house fly mortality test (saturated cotton wad); type: in vivo, Musca domestica Linnaeus; details: Musca domestica
Description: as §1, §2
(§7) The house fly and boll weevil tests were effected by saturating a golf-ball size wad of cotton with 10 ml of a "10% wet sugar water" preparation of the test chemical. […]
as §3

[7] = test system: cotton boll weevil (BW); experiment: boll weevil mortality test (saturated cotton wad); type: in vivo, Anthonomus grandis Boheman
Description: as §1, §2, §7, §3

[8] = test system: plant; experiment: phytotoxicity compared with the parent compound; type: in vivo; details: for average phytotoxicity index: after eight days, scale 0 = no damage, 10 = complete kill of plant
Description: as §6

[9] = test system: male rats; experiment: acute oral toxicity to male rats; type: in vivo, rat
[10] = acute oral toxicity to male rats; type: in vivo, rat; details: rat, in vivo
[11] = test system: cabbage looper (CL); experiment: cabbage looper mortality test (bush lima bean leaf dip); type: in vivo; details: Trichoplusia ni, foliar; for mortality at 11 ppm: rate 11 ppm
Description: as §1, §2, §4, §5, §3

[12] = test system: tobacco budworm (TBW); experiment: tobacco budworm mortality test; type: in vivo; details: Heliothis virescens
Description: as §1, §2, §3

[13] = Mammalian Toxicity, oral LD50, rat; details: in vivo

In the case of `CCCN(SN(C)C(=O)Oc1cc(C)c(N(C)C)c(C)c1)P(=S)(OCC)OCC` [4-(dimethylamino)-3,5-xylyl [[(diethoxyphosphinothioyl)-n-propylamino]thio]methylcarbamate], the mortality at 0.6 ppm ([1]; rate 0.6 ppm) is reported as 100% and the mortality at 100 ppm [2] is reported as 100%.
For `CSC(C)=NOC(=O)N(C)SN(C(C)(C)C)P1(=S)OCC(C)(C)CO1` [Methyl N-[[[[[(5,5-dimethyl-2-thioxo-1,3,2-dioxaphosphorinano-2-yl)tert-butylamino]thio]methylamino]carbonyl]oxy]ethanimidothioate], the crystallinity [3] was “extremely crystalline”.
In the case of `CCOP(=S)(OCC)N(SN(C)C(=O)ON=C(C)SC)C(C)C` [Methyl N-[[[[[(diethoxyphosphinothioyl)isopropylamino]thio]methylamino]carbonyl]oxy]ethanimidothioate], the “mortality, foliar residual effectiveness” value ([4]; seven weeks after the treatment was applied, 70560 min) is reported as 100%, the “phytotoxicity compared with parent compound” value [5] is reported as “markedly less phytotoxic” and the mortality at 25 ppm ([6]; HF, rate 25 ppm, read-out: Mortality) is reported as 80%. For the same molecule, the mortality at 50 ppm ([7]; BW, rate 50 ppm) was 60%, the mortality at 1 ppm ([1]; rate 1.0 ppm) was 100% and the average phytotoxicity index ([8]; 300 ppm) was “about 1.0”. The average phytotoxicity index ([8]; 600 ppm) was roughly 1.5, the “phytotoxicity compared with parent compound” value ([8]; in general) was “in general less phytotoxic than the parent” and the “oral toxicity relative to the parent methylcarbamate” value [9] was “less than one fourth as toxic as the parent methylcarbamate”. For the same molecule, the LD50 [10] was 105 mg/kg, the mortality at 3.3 ppm ([11]; CL, rate 3.3 ppm, read-out: Mortality) was 100% and the mortality at 3.3 ppm [2] was 100%.
`COP(=S)(c1ccccc1)N(SN(C)C(=O)ON=C(C)SC)C(C)C` (centres unmarked) [Methyl N-[[[[[[methoxy(phenyl)phosphinothioyl]isopropylamino]thio]methylamino]carbonyl]oxy]ethanimidothioate] showed a mortality at 25 ppm [6] of 50%, a mortality at 25 ppm [7] of 80% and a mortality at 3.3 ppm [11] of 50%. For the same molecule, the mortality at 3.3 ppm [2] was 90%.
Molecule `CSC(C)=NOC(=O)N(C)SN(C1CCCCC1)P1(=S)OCC(C)(C)CO1` [Methyl N-[[[[[cyclohexyl(5,5-dimethyl-2-thioxo-1,3,2-dioxaphosphorinan-2-yl)amino]thio]methylamino]carbonyl]oxy]ethanimidothioate] has a mortality at 11 ppm [12] of 95%, a mortality at 11 ppm ([11]; CL) of 87.5% and an LD50 [13] greater than 8000 mg/kg. The mortality at 11 ppm [2] was 70%.
`CSC(C)=NOC(=O)N(C)SN(C(C)C)P1(=S)OCCO1` [Methyl N-[[[[[isopropyl(2-thioxo-1,3,2-phospholan-2-yl)amino]thio]methylamino]carbonyl]oxy]ethanimidothioate] gave a mortality at 11 ppm [12] of 45%, a mortality at 11 ppm ([11]; CL) of 48% and a mortality at 11 ppm [2] of 40%.
For `CSC(C)=NOC(=O)N(C)SN(C(C)C)P1(=S)OC(C)CC(C)(C)O1` (centres unmarked) [Methyl N-[[[[[isopropyl(4,4,6-trimethyl-2-thioxo-1,3,2-dioxaphosphorinan-2-yl)amino]thio]methylamino]carbonyl]oxy]ethanimidothioate], the mortality at 11 ppm ([11]; CL) was 92.5%.
Molecule `CCC1(CC)COP(=S)(N(SN(C)C(=O)ON=C(C)SC)C(C)C)OC1` [Methyl N-[[[[[isopropyl(5,5-diethyl-2-thioxo-1,3,2-dioxaphosphorinan-2-yl)amino]thio]methylamino]carbonyl]oxy]ethanimidothioate] has a mortality at 11 ppm [12] of 100%, a mortality at 11 ppm ([11]; CL) of 95% and an LD50 [13] greater than 2000 mg/kg. The mortality at 11 ppm [2] was 60%.
In the case of `CCC1(CC)COP(=S)(N(SN(C)C(=O)ON=C(C)SC)C2CCCCC2)OC1` [Methyl-[[[[[cyclohexyl(5,5-diethyl-2-thioxo-1,3,2-dioxaphosphorinan-2-yl)amino]thio]methylamino]carbonyl]oxy]ethanimidothioate], the mortality at 11 ppm [12] is reported as 95%, the mortality at 11 ppm ([11]; CL) is reported as 77.5% and the LD50 [13] is reported as greater than 8000 mg/kg. For the same molecule, the mortality at 11 ppm [2] was 70%.
Molecule `CCN(SN(C)C(=O)ON=C(C)SC)P1(=S)OCC(C)(C)CO1` [Methyl-[[[[[ethyl(5,5-dimethyl-2-thioxo-1,3,2-dioxaphosphorinan-2-yl)amino]thio]methylamino]carbonyl]oxy]ethanimidothioate] has a mortality at 11 ppm ([11]; CL) of 56%.
Molecule `CSC(C)=NOC(=O)N(C)SN(C(C)C)P1(=S)OCCCO1` [Methyl-[[[[[isopropyl(2-thioxo-1,3,2-dioxaphosphorinan-2-yl)amino]thio]methylamino]carbonyl]oxy]ethanimidothioate] has a mortality at 11 ppm [2] of 56%.
Molecule `CNC(=O)ON=C(C)SC` [methyl N-[[(methylamino)carbonyl]oxy]ethanimidothioate, reference compound] has a foliar residual activity ([4]; by the 14th day, at an equivalent rate) of 20%, an average phytotoxicity index ([8]; 300 ppm) of 4.25 and an average phytotoxicity index ([8]; 600 ppm) of 5.0. The LD50 [10] was 17 to 24 mg/kg.
